We go through 1 compound from US20100204045A1, “Systemicity Enhancers” (BASF SE, priority 2007, published 2010).

This experiment relates to aphids. Put plainly: Root systemicity of fipronil with polymers: wheat plants in vermiculite drenched, infested with aphids, aphid population counted. Type of experiment: in vivo, aphids on wheat plants. Conditions: 4 days after infestation, relative to plants not treated with fipronil. The protocol: To test the root systemicity of fipronil with polymers according to the invention, wheat plants in vermiculite were drenched with 20 ml fipronil/polymer (1:1 wt) solutions in Hoagland solution/acetone mixtures (0.6 v % acetone). Two fipronil and polymer concentrations were used, 3 ppm and 6 ppm. As reference fipronil solutions in Hoagland solution/acetone mixtures without polymer were used. Hoagland solution consists of the following ingredients:
0.25 v % of 1M KNO3 solution in water, 0.1 v % of 1 M MgSO4 solution in water, 0.05 v % of 1M KH2PO4 solution in water, 0.25 v % 1M Ca(NO3)2) solution in water, 0.05 v % of a trace solution consisting of 2.86 g/l H3BO3, 1.81 g/l MnCl2*4H2O, 0.22 g/l ZnSO4*7H2O, 0.08 g/l CuSO4*5H2O, 0.016 g/l MoO3 in water, 0.075 v % Sequestrene 138 Fe consisting of 30 g/l sodium ferric ethylenediamine di-(o-hydroxyphenylacetate) in water, 99.225 v % water sterilized and pH adjusted to 6-6.5 with NaOH.
The plants were then infested with aphids. After 4 days the aphid population on the wheat plants was counted. The results of fipronil and fipronil with polymer are related to the aphid population on plants that had not been treated with fipronil.

Take `N#Cc1nn(-c2c(Cl)cc(C(F)(F)F)cc2Cl)c(N)c1[S+]([O-])C(F)(F)F` (stereo not shown) [Reference A, fipronil]: the Aphid population is, setting by setting: (Table 1, 3 ppm fipronil (and polymer, 1:1 wt)) 51%; (Table 1, 6 ppm fipronil (and polymer, 1:1 wt)) 23%; (Table 2, 3 ppm fipronil (and polymer, 1:1 wt)) 23%; (Table 2, 6 ppm fipronil (and polymer, 1:1 wt)) 12%.
